From patent publication US20180298317A1, “DEVICES FOR SIMULATING A FUNCTION OF A TISSUE AND METHODS OF USE AND MANUFACTURING THEREOF” (PRESIDENT AND FELLOWS OF HARVARD COLLEGE, priority 2015, published 2018)

What was measured:
[1] = test system: human brain microvascular endothelial cells with pericytes or astrocytes; assay: Inflammatory stimulation and cytokine release in 3D BBB chip; type: cell-based
Procedure: Microfluidic chips and Transwell inserts were cultured for about 72 hours, followed by incubation in CSC complete medium with fetal bovine serum reduced from about 10% to about 2% for about 18 hours. Microfluidics chips were stimulated with TNF-α (Sigma-Aldrich) at about 50 ng/ml in CSC complete medium with about 2% serum for about 6 hrs (about 5 min flow at about 120 μl/min corresponding to about 1 dyne/cm^2, followed by static conditions). Transwells were stimulated on the apical and the basal side. Following thorough rinsing of microfluidic chips under continuous flow (about 120 μl/min, about 1 dyne/cm^2) and batch washes of Transwell plates with CSC complete medium with about 2% serum, conditioned medium from the chips was collected continuously for about 1 hour at about 100 μl/hr (about 0.01 dyne/cm^2) using syringe-driven flow; medium from the apical compartment was collected from Transwells after about 1 hour. The cytokine release profile was assayed with the Bio-Plex Pro Human Cytokine 17-plex Assay (Bio-Rad) in a Bioplex 3D system (Bio-Rad), and the resulting cytokine release profiles were normalized to cell culture area in 3D BBB chips versus Transwells.
(§1) To explore whether we can use the synthetic nature of the 3D BBB chip to analyze the contributions of individual brain vasculature-associated cells to neuroinflammation, the engineered microvessels were cultured in the presence or absence of TNF-α (about 50 ng/ml) that was flowed through the lumen for about 6 hours. Cytokine release profiles produced in the 3D BBB chips containing endothelium with or without either pericytes or astrocytes were then analyzed, and the results were compared to those obtained with similar mono-cultures, as well as co-cultures maintained in commercial Transwell culture plates.

[2] = test system: human brain microvascular endothelial cells with pericytes or astrocytes; assay: Inflammatory stimulation and cytokine release in static Transwell cultures; type: cell-based
Procedure: 24-well Transwell inserts (Corning), about 0.4 μm, polyethylene terephthalate membranes, were coated with rat-tail collagen I (Corning) at about 100 μg/ml in phosphate-buffered saline for about 2 hours. The inserts were inverted and pericytes or astrocytes were seeded at about 6.25×10^3 cells per insert. After about 2 hours of incubation, the inserts were placed in 24-well plates and seeded with hBMVEC at about 2.5×10^4 cells per insert. Transendothelial electrical resistance (TEER) values were measured after about 120 hrs of culture using an EndOhm (WPI) and chopstick electrodes. Paracellular diffusion was assayed about 5 minutes after adding dextran 3 kDa-Alexa488 (about 100 μg/ml) to the apical chamber and using a Synergy Neo platereader (BioTek (Winooski, Vt., USA)).
Microfluidic chips and Transwell inserts were cultured for about 72 hours, followed by incubation in CSC complete medium with fetal bovine serum reduced from about 10% to about 2% for about 18 hours. Microfluidics chips were stimulated with TNF-α (Sigma-Aldrich) at about 50 ng/ml in CSC complete medium with about 2% serum for about 6 hrs (about 5 min flow at about 120 μl/min corresponding to about 1 dyne/cm^2, followed by static conditions). Transwells were stimulated on the apical and the basal side. […]
as §1

TNF-α
IL-6 induction ([1]; 3D BBB chip co-cultures of astrocytes-endothelial cells and pericytes-endothelial cells, about 50 ng/ml, about 6 hours): strong IL-6 induction
IL-8 production in response to stimulation ([1]; 3D BBB chip, astrocytes or pericytes in combination with endothelial cells): enhanced IL-8 production
induction of G-CSF secretion ([1]; 3D BBB chip, pericytes with endothelium, about 50 ng/ml, about 6 hours): generally not sensitive to induction
increase in G-CSF secretion in response to TNF-α stimulation ([1]; 3D BBB chips containing astrocytes and endothelial cells, about 50 ng/ml, about 6 hours): ≤ 10 fold
IL-6 induction ([2]; Transwell co-cultures, about 50 ng/ml, about 6 hours): barely detectable
IL-8 production in response to stimulation ([2]; Transwell cultures, astrocytes or pericytes in combination with endothelial cells): enhanced IL-8 production
induction of G-CSF secretion ([2]; endothelial cells and astrocytes co-cultured under static conditions in Transwells, about 50 ng/ml, about 6 hours): could not be detected
